Key:
Plasma [1] = assay: Drug level in cynomolgus monkey plasma assessed as compound formation treated with [14C]brivanib alaninate at 10 mg/kg, po administered as single dose via gavage measured after 12 hrs by mass spectrometry; assay type: ADME, organism-based, Macaca fascicularis; settings: in vivo
[2] = Drug excretion in Sprague-Dawley rat urine treated with [14C]brivanib alaninate at 100 mg/kg, po administered as single dose via gavage by HPLC analysis; assay type: ADME, organism-based; settings: in vivo
[3] = Drug level in bile duct-cannulated cynomolgus monkey bile treated with [14C]brivanib alaninate at 10 mg/kg, po administered as single dose via gavage by mass spectrometry; assay type: ADME, organism-based, Macaca fascicularis; settings: in vivo
Plasma [4] = assay: Drug level in human plasma assessed as compound formation treated with [14C]brivanib alaninate at 800 mg, po administered as single dose via gavage measured after 4 hrs by mass spectrometry; assay type: ADME, organism-based; settings: in vivo
Plasma [5] = assay: Drug level in cynomolgus monkey plasma assessed as compound formation treated with [14C]brivanib alaninate at 10 mg/kg, po administered as single dose via gavage measured after 2 hrs by mass spectrometry; assay type: ADME, organism-based, Macaca fascicularis; settings: in vivo
[6] = Drug level in bile duct-cannulated rat bile treated with [14C]brivanib alaninate at 100 mg/kg, po administered as single dose via gavage by mass spectrometry; assay type: ADME, organism-based; settings: in vivo
Plasma [7] = assay: Drug level in Sprague-Dawley rat plasma assessed as compound formation treated with [14C]brivanib alaninate at 100 mg/kg, po administered as single dose via gavage measured after 6 hrs by mass spectrometry; assay type: ADME, organism-based; settings: in vivo
Plasma [8] = assay: Drug level in cynomolgus monkey plasma assessed as compound formation treated with [14C]brivanib alaninate at 10 mg/kg, po administered as single dose via gavage measured after 6 hrs by mass spectrometry; assay type: ADME, organism-based, Macaca fascicularis; settings: in vivo
Plasma [9] = assay: Drug level in cynomolgus monkey plasma assessed as compound formation treated with [14C]brivanib alaninate at 10 mg/kg, po administered as single dose via gavage measured after 4 hrs by mass spectrometry; assay type: ADME, organism-based, Macaca fascicularis; settings: in vivo
Plasma [10] = assay: Drug level in Sprague-Dawley rat plasma assessed as compound formation treated with [14C]brivanib alaninate at 100 mg/kg, po administered as single dose via gavage measured after 2 hrs by mass spectrometry; assay type: ADME, organism-based; settings: in vivo
Plasma [11] = assay: Drug level in human plasma assessed as compound formation treated with [14C]brivanib alaninate at 800 mg, po administered as single dose via gavage measured after 12 hrs by mass spectrometry; assay type: ADME, organism-based; settings: in vivo
Plasma [12] = assay: Drug level in human plasma assessed as compound formation treated with [14C]brivanib alaninate at 800 mg, po administered as single dose via gavage measured after 2 hrs by mass spectrometry; assay type: ADME, organism-based; settings: in vivo
[13] = Drug excretion in Sprague-Dawley rat feces treated with [14C]brivanib alaninate at 100 mg/kg, po administered as single dose via gavage by HPLC analysis; assay type: ADME, organism-based; settings: in vivo
[14] = Drug excretion in human feces treated with [14C]brivanib alaninate at 800 mg, po administered as single dose […] by HPLC analysis; assay type: ADME, organism-based; settings: in vivo
[15] = Drug excretion in cynomolgus monkey urine treated with [14C]brivanib alaninate at 10 mg/kg, po administered as single dose via gavage by HPLC analysis; assay type: ADME, organism-based, Macaca fascicularis; settings: in vivo
[16] = Drug excretion in cynomolgus monkey feces treated with [14C]brivanib alaninate at 10 mg/kg, po administered as single dose via gavage by HPLC analysis; assay type: ADME, organism-based, Macaca fascicularis; settings: in vivo
Plasma [17] = assay: Drug level in Sprague-Dawley rat plasma assessed as compound formation treated with [14C]brivanib alaninate at 100 mg/kg, po administered as single dose via gavage measured after 1 hr by mass spectrometry; assay type: ADME, organism-based; settings: in vivo
Plasma [18] = assay: Drug level in human plasma assessed as compound formation treated with [14C]brivanib alaninate at 800 mg, po administered as single dose via gavage measured after 1 hr by mass spectrometry; assay type: ADME, organism-based; settings: in vivo
Plasma [19] = assay: Drug level in cynomolgus monkey plasma assessed as compound formation treated with [14C]brivanib alaninate at 10 mg/kg, po administered as single dose via gavage measured after 1 hr by mass spectrometry; assay type: ADME, organism-based, Macaca fascicularis; settings: in vivo
[20] = Drug excretion in human urine treated with [14C]brivanib alaninate at 800 mg, po administered as single dose […] by HPLC analysis; assay type: ADME, organism-based; settings: in vivo
Plasma [21] = assay: Drug level in human plasma assessed as compound formation treated with [14C]brivanib alaninate at 800 mg, po administered as single dose via gavage measured after 8 hrs by mass spectrometry; assay type: ADME, organism-based; settings: in vivo
Plasma [22] = assay: Drug level in cynomolgus monkey plasma assessed as compound formation treated with [14C]brivanib alaninate at 10 mg/kg, po administered as single dose via gavage measured after 12 hrs by HPLC analysis; assay type: ADME, organism-based, Macaca fascicularis; settings: in vivo
Liver microsome = assay: Drug level in human liver microsomes treated with brivanib by LC-MS/MS analysis in presence of NADPH; assay type: ADME
Plasma [23] = assay: Drug level in Sprague-Dawley rat plasma assessed as compound formation treated with [14C]brivanib alaninate at 100 mg/kg, po administered as single dose via gavage measured after 2 hrs by HPLC analysis; assay type: ADME, organism-based; settings: in vivo
Plasma [24] = assay: Drug level in human plasma assessed as compound formation treated with [14C]brivanib alaninate at 800 mg, po administered as single dose via gavage measured after 8 hrs by HPLC analysis; assay type: ADME, organism-based; settings: in vivo
Plasma [25] = assay: Drug level in human plasma assessed as compound formation treated with [14C]brivanib alaninate at 800 mg, po administered as single dose via gavage measured after 1 hr by HPLC analysis; assay type: ADME, organism-based; settings: in vivo
[26] = molecular target: Vascular endothelial growth factor receptor 2 (Homo sapiens, UniProt P35968); assay: Inhibition of human recombinant VEGFR-2
Plasma [27] = assay: Drug level in Sprague-Dawley rat plasma assessed as compound formation treated with [14C]brivanib alaninate at 100 mg/kg, po administered as single dose via gavage measured after 6 hrs by HPLC analysis; assay type: ADME, organism-based; settings: in vivo
Plasma [28] = assay: Drug level in human plasma assessed as compound formation treated with [14C]brivanib alaninate at 800 mg, po administered as single dose via gavage measured after 2 hrs by HPLC analysis; assay type: ADME, organism-based; settings: in vivo
[29] = molecular target: Fibroblast growth factor receptor 1 (Homo sapiens, UniProt P11362); assay: Inhibition of human recombinant FGFR-1
Plasma [30] = assay: Drug level in human plasma assessed as compound formation treated with [14C]brivanib alaninate at 800 mg, po administered as single dose via gavage measured after 4 hrs by HPLC analysis; assay type: ADME, organism-based; settings: in vivo
Plasma [31] = assay: Drug level in Sprague-Dawley rat plasma assessed as compound formation treated with [14C]brivanib alaninate at 100 mg/kg, po administered as single dose via gavage measured after 1 hr by HPLC analysis; assay type: ADME, organism-based; settings: in vivo
Plasma [32] = assay: Drug level in cynomolgus monkey plasma assessed as compound formation treated with [14C]brivanib alaninate at 10 mg/kg, po administered as single dose via gavage measured after 6 hrs by HPLC analysis; assay type: ADME, organism-based, Macaca fascicularis; settings: in vivo
Plasma [33] = assay: Drug level in human plasma assessed as compound formation treated with [14C]brivanib alaninate at 800 mg, po administered as single dose via gavage measured after 12 hrs by HPLC analysis; assay type: ADME, organism-based; settings: in vivo
Plasma [34] = assay: Drug level in cynomolgus monkey plasma assessed as compound formation treated with [14C]brivanib alaninate at 10 mg/kg, po administered as single dose via gavage measured after 2 hrs by HPLC analysis; assay type: ADME, organism-based, Macaca fascicularis; settings: in vivo
Homo sapiens [35] = assay: AUC (0 to 12 hrs) human plasma treated with [14C]brivanib alaninate at 800 mg, po administered as single oral dose by HPLC analysis; assay type: ADME, organism-based; settings: in vivo
Cynomolgus monkey [36] = assay: Drug uptake in cynomolgus monkey plasma treated with [14C]brivanib alaninate assessed as AUC (0 to 4 hrs) of total radio activity at 10 mg/kg, po administered as single oral dose by HPLC analysis; assay type: ADME, organism-based, Macaca fascicularis; settings: in vivo
Rattus norvegicus [37] = assay: Drug uptake in Sprague-Dawley rat plasma treated with [14C]brivanib alaninate assessed as AUC (0 to 6 hrs) of total radio activity at 100 mg/kg, po administered as single oral dose by HPLC analysis; assay type: ADME, organism-based; settings: in vivo
[38] = Drug excretion in bile duct-cannulated cynomolgus monkey bile treated with [14C]brivanib alaninate at 10 mg/kg, po administered as single dose via gavage by HPLC analysis; assay type: ADME, organism-based, Macaca fascicularis; settings: in vivo
[39] = Drug level in cynomolgus monkey urine treated with [14C]brivanib alaninate at 10 mg/kg, po administered as single dose via gavage by mass spectrometry; assay type: ADME, organism-based, Macaca fascicularis; settings: in vivo
[40] = Drug excretion in bile duct-cannulated rat bile treated with [14C]brivanib alaninate at 100 mg/kg, po administered as single dose via gavage by HPLC analysis; assay type: ADME, organism-based; settings: in vivo
Rattus norvegicus [41] = assay: AUC (0 to 6 hrs) Sprague-Dawley rat plasma treated with [14C]brivanib alaninate at 100 mg/kg, po administered as single oral dose by HPLC analysis; assay type: ADME, organism-based; settings: in vivo
Plasma [42] = assay: Drug level in cynomolgus monkey plasma assessed as compound formation treated with [14C]brivanib alaninate at 10 mg/kg, po administered as single dose via gavage measured after 1 hr by HPLC analysis; assay type: ADME, organism-based, Macaca fascicularis; settings: in vivo
Plasma [43] = assay: Drug level in cynomolgus monkey plasma assessed as compound formation treated with [14C]brivanib alaninate at 10 mg/kg, po administered as single dose via gavage measured after 4 hrs by HPLC analysis; assay type: ADME, organism-based, Macaca fascicularis; settings: in vivo
Homo sapiens [44] = assay: Drug uptake in human plasma treated with [14C]brivanib alaninate assessed as AUC (0 to 12 hrs) of total radio activity at 800 mg, po administered as single oral dose by HPLC analysis; assay type: ADME, organism-based; settings: in vivo
Cynomolgus monkey [45] = assay: AUC (0 to 4 hrs) cynomolgus monkey plasma treated with [14C]brivanib alaninate at 10 mg/kg, po administered as single oral dose by HPLC analysis; assay type: ADME, organism-based, Macaca fascicularis; settings: in vivo

Fibroblast growth factor receptor 1, sequence (P11362 whole entry): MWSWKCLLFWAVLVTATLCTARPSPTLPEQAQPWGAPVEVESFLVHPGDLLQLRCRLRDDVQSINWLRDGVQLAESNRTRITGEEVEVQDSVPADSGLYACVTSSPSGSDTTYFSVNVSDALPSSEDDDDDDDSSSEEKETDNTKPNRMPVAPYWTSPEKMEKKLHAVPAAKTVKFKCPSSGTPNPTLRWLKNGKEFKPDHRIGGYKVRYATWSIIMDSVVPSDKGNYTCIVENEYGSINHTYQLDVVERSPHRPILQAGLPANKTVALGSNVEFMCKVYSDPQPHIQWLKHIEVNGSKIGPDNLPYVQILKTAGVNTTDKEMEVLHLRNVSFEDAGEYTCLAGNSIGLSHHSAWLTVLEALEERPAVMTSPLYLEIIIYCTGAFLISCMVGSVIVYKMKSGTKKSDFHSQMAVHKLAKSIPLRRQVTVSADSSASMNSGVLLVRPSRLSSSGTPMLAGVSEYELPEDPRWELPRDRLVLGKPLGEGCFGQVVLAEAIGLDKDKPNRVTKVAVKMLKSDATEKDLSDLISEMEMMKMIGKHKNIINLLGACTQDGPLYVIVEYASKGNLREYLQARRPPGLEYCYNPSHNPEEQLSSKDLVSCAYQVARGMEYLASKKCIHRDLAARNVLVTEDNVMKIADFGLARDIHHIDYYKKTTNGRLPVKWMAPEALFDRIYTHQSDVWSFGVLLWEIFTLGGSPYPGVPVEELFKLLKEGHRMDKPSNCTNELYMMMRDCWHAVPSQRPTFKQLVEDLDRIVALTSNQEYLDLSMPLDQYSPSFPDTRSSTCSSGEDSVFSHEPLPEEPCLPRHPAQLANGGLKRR
Vascular endothelial growth factor receptor 2, sequence (P35968 whole entry): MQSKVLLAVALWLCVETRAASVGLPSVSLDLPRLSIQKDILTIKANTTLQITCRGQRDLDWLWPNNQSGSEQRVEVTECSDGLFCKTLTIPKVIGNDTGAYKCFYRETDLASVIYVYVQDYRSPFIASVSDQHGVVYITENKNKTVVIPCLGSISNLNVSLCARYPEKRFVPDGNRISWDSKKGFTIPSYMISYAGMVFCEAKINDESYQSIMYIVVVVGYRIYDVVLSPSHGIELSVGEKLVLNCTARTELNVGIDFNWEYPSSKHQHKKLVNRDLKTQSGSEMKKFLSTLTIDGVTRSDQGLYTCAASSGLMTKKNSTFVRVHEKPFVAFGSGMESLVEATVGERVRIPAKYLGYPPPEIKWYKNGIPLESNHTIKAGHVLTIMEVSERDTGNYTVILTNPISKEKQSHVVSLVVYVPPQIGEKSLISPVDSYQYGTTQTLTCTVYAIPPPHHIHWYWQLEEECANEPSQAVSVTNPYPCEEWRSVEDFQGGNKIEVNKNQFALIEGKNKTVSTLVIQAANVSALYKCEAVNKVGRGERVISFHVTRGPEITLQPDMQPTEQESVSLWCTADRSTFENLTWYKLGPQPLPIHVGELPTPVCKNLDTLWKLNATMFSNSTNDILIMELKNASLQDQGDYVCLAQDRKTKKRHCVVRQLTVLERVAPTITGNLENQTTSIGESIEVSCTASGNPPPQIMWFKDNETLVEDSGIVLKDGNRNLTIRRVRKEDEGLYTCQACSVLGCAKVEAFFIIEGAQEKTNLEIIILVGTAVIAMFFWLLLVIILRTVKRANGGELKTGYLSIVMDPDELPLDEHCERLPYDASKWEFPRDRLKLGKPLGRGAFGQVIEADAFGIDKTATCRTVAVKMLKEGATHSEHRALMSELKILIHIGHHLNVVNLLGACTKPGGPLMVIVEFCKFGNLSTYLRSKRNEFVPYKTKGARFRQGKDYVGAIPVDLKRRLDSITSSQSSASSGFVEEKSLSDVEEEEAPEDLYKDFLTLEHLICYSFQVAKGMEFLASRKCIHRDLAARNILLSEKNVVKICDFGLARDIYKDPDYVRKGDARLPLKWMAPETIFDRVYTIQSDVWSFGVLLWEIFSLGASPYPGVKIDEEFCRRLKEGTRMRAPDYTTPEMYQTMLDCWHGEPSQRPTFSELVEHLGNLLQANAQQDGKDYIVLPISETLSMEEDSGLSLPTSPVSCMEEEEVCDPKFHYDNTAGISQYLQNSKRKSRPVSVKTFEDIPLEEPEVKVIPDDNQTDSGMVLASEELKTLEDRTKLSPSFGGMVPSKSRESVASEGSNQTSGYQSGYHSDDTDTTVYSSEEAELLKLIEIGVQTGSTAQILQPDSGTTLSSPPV

| SMILES | Compound recovery [2] | Compound recovery (Plasma [5]) | Compound recovery (Plasma [9]) | Compound recovery [13] | Compound recovery [14] | Compound recovery [16] | Compound recovery (Plasma [19]) | Compound recovery [20] | Compound recovery (Plasma [22]) | Compound recovery (Plasma [23]) [%] | Compound recovery (Plasma [24]) | Compound recovery (Plasma [25]) | IC50 [26] [µM] | Compound recovery (Plasma [27]) [%] | Compound recovery (Plasma [28]) | IC50 [29] [µM] | Compound recovery (Plasma [30]) | Compound recovery (Plasma [31]) [%] | Compound recovery (Plasma [32]) | Compound recovery (Plasma [33]) | other results |
| --- | --- | --- | --- | --- | --- | --- | --- | --- | --- | --- | --- | --- | --- | --- | --- | --- | --- | --- | --- | --- | --- |
| CC(=O)COc1cn2ncnc(Oc3ccc4[nH]c(C)cc4c3F)c2c1C | metabolite_not_detected | metabolite_detected | metabolite_detected | metabolite_not_detected | metabolite_not_detected | metabolite_not_detected | metabolite_detected | metabolite_not_detected | – | – | – | – | – | – | – | – | – | – | – | – | Compound recovery (Plasma [1]): metabolite_detected; Compound recovery [3]: metabolite_detected; Compound recovery (Plasma [4]): metabolite_detected; Compound recovery [6]: metabolite_detected; Compound recovery (Plasma [7]): metabolite_detected; Compound recovery (Plasma [8]): metabolite_detected; Compound recovery (Plasma [10]): metabolite_detected; Compound recovery (Plasma [11]): metabolite_detected; Compound recovery (Plasma [12]): metabolite_detected; Compound recovery [15]: metabolite_not_detected; Compound recovery (Plasma [17]): metabolite_detected; Compound recovery (Plasma [18]): metabolite_detected; Compound recovery (Plasma [21]): metabolite_detected |
| Cc1c(OC[C@@H](C)O)cn2ncnc(Oc3ccc4[nH]c(CO)cc4c3F)c12 | – | metabolite_detected | metabolite_detected | – | – | – | metabolite_detected | – | metabolite_not_detected | 1.2 | metabolite_not_detected | metabolite_not_detected | 0.078 | 1.1 | metabolite_not_detected | 0.76 | metabolite_not_detected | 1.5 | metabolite_not_detected | metabolite_not_detected | Compound recovery (Liver microsome): metabolite_detected |
| Cc1cc2c(F)c(Oc3ncnn4cc(OC[C@@H](C)OS(=O)(=O)O)c(C)c34)ccc2[nH]1 | 0.8% | – | – | 3.5% | 26.2% | 35.2% | – | metabolite_not_detected | metabolite_not_detected | 1.3 | 9.8% | metabolite_not_detected | 0.028 | 1.5 | 2.3% | 0.026 | 3.6% | 0.5 | metabolite_not_detected | 10.8% | Compound recovery (Plasma [34]): 1%; AUC (Homo sapiens [35]): 3611.4 ugequiv/l.hr; AUC metabolite/AUC radiolabel (Cynomolgus monkey [36]): 1.1%; AUC metabolite/AUC radiolabel (Rattus norvegicus [37]): 1.2%; Compound recovery [38]: 15.2%; Compound recovery [39]: metabolite_detected; Compound recovery [40]: 2.1%; AUC (Rattus norvegicus [41]): 1628.2 ugequiv/l.hr; Compound recovery (Plasma [42]): 1.9%; Compound recovery (Plasma [43]): 1.3%; AUC metabolite/AUC radiolabel (Homo sapiens [44]): 5.5%; AUC (Cynomolgus monkey [45]): 755.8 ugequiv/l.hr |

— ChEMBL document CHEMBL3526109 (Drug Metab Dispos, 2011)
